{
  "source": "patent US20180140578A1",
  "about": "“METHODS AND COMPOSITIONS FOR THE DIAGNOSIS AND SELECTIVE TREATMENT OF CANCER” (Board of Regents of the University of Texas System, priority 2016, published 2018)",
  "key": {"DCAF15 and RBM39Δ150 [1]": {"target": "T1, DCAF15 and RBM39Δ150 (Homo sapiens, UniProt Q14498+Q66K64, P272S)", "T1 construct": "Full-length cDNAs encoding CUL4A, CUL4B, DCAF15, and DDB1 were cloned into pLVX IRES Puro; made in house; host or cells: RBM39Δ150: Sf9 (baculovirus); DCAF15-3xFLAG: anti-FLAG beads from HCT-116 or 293T cells stably expressing it", "T1 sequence (Q66K64 whole entry, stated change not applied)": "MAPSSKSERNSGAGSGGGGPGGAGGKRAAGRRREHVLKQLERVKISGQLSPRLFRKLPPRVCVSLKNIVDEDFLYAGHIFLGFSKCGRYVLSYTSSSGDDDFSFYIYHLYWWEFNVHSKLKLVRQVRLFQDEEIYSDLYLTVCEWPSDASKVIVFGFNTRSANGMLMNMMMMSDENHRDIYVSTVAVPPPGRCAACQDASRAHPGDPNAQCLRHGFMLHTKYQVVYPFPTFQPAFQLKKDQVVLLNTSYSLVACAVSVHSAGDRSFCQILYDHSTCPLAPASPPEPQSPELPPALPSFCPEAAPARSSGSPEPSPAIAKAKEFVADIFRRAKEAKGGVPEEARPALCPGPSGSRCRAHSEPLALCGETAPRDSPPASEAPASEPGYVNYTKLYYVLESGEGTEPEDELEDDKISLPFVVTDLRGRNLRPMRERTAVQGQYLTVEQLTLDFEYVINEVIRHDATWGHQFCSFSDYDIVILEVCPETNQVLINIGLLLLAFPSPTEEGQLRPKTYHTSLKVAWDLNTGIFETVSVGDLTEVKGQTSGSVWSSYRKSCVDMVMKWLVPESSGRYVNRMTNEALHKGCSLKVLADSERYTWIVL", "T1 sequence (Q14498 151-530 P272S, stated change not applied)": "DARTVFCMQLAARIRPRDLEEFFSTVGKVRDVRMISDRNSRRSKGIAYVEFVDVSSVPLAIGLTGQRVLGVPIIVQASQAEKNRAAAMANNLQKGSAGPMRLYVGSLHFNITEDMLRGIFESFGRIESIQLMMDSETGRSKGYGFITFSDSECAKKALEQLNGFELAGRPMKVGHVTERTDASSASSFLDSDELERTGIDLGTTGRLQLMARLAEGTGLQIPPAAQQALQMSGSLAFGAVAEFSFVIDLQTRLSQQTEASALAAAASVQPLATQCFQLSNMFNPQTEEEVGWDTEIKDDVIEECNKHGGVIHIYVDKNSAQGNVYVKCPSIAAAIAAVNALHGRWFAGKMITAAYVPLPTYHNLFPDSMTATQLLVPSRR", "T1 sequence (Q16531 2-1140 partner, stated change not applied)": "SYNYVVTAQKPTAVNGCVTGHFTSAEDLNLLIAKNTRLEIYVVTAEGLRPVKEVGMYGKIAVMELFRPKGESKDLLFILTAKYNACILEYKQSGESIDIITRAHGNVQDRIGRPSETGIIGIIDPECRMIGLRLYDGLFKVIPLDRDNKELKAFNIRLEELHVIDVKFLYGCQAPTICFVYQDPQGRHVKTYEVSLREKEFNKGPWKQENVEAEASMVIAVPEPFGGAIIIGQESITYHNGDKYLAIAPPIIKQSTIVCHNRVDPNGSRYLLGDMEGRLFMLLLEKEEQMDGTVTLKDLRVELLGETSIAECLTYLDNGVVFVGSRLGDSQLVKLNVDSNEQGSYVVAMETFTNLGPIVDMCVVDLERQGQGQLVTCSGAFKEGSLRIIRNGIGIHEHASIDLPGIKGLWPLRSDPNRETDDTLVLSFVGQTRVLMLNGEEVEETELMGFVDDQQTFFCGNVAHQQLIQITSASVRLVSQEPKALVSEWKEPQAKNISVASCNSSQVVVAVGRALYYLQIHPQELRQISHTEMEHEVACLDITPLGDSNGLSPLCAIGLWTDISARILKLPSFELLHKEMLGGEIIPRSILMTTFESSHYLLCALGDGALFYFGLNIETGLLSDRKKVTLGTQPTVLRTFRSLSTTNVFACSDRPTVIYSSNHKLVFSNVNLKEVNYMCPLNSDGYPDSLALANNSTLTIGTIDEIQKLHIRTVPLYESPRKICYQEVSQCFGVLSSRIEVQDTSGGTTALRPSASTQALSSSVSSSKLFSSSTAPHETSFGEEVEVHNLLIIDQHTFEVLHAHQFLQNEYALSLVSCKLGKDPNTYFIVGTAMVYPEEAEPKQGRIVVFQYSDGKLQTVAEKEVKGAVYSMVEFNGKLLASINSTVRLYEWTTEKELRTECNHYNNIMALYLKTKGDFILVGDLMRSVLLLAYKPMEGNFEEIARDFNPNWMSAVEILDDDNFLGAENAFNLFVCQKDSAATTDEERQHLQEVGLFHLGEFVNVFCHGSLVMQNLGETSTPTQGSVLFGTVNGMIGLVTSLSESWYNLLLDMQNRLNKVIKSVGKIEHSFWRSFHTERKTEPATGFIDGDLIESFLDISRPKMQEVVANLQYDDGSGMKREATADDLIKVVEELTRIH", "assay": "Mass spec quantification of indisulam in RBM39 DCAF15 complex", "assay_type": "binding", "details": "DCAF15 and RBM39Δ150 P272S; 10 μM indisulam", "text": "(§1) RBM39-3xFLAG was immunopurified from HCT-116 cells expressing RBM39-3xFLAG (endogenous tag) using the cryomill procedure. DCAF15-3xFLAG was purified from 293T cells stably expressing DCAF15-3xFLAG through lentiviral transduction. […] Afterwards, beads were washed twice with 1×PBS, 0.1% NP40 and twice with 1×PBS. […] The tolbutamide internal standard (IS) was detected using the transition 269.1 to 169.9 (negative mode; M-H^−). […] The limit of quantitation (lowest quantifiable point on the standard curve with accuracy within 20% upon back calculation and at least 3-fold above background) for this method was 50 pg/ml."}, "DCAF15 and RBM39Δ150 [2]": {"system": "DCAF15 and RBM39Δ150", "assay": "Mass spec quantification of indisulam in RBM39 DCAF15 complex", "assay_type": "binding, human", "text": "as §1"}, "DCAF15 and RBM39Δ150 [3]": {"target": "T2, DCAF15 and RBM39Δ150 (Homo sapiens, UniProt Q14498+Q66K64)", "T2 construct": "Full-length cDNAs encoding CUL4A, CUL4B, DCAF15, and DDB1 were cloned into pLVX IRES Puro; made in house; host or cells: RBM39Δ150: Sf9 (baculovirus); DCAF15-3xFLAG: anti-FLAG beads from HCT-116 or 293T cells stably expressing it", "T2 sequence (Q66K64 whole entry, stated change not applied)": "as the sequence (Q66K64 whole entry, stated change not applied) above", "T2 sequence (Q14498 151-530, stated change not applied)": "as the sequence (Q14498 151-530 P272S, stated change not applied) above, with S122P counted along it", "T2 sequence (Q16531 2-1140 partner)": "as the sequence (Q16531 2-1140 partner, stated change not applied) above", "assay": "Mass spec quantification of indisulam in RBM39 DCAF15 complex", "assay_type": "binding", "details": "DCAF15 and wild type RBM39Δ150; 10 μM indisulam", "text": "as §1"}, "[4]": {"system": "RBM39 in DCAF15−/− H1155 cells", "assay": "RBM39 degradation in DCAF15−/− cells (western blotting)", "assay_type": "cell-based, human", "procedure": "Proteins were resolved on SDS-PAGE and transferred to 0.5 μm nitrocellulose membranes. Membranes were blocked in 5% milk TBST for 30 min, and then anti-RBM39 antibodies (HPA001591, Sigma-Aldrich) were added in 5% milk (1:5000) and incubated on a shaker overnight at 4° C. After three 5 min washes with TBST, membranes were incubated with HRP-conjugated goat anti-rabbit secondary antibody (Bio-Rad) for 2 hr at room temperature. After three 5 min washes with TBST, membranes were developed with ECL (enhanced chemiluminescence) substrates.\nTwo independent guide RNAs targeting DDB1, DDA1, DCAF15 were cloned into PX459. 0.2 million H1155 RBM39-AcGFP cells were transfected with PX459 sgRNA constructs and selected with 2 μg/ml puromycin to enrich for transfected cells. […] Cells were then trypsinized and the expression of RBM39-AGFP was quantified with flow cytometry. H1155 cells transfected with DCAF15 guide RNA were sparsely plated on 10 cm^2 plates and clones were isolated. Genomic DNA sequence flanking the cut site were amplified and sequenced to identify DCAF15−/− clones."}, "[5]": {"system": "H1155 cells transduced with DCAF15-3xFLAG cDNA", "assay": "Cell viability assay, DCAF15 overexpression", "assay_type": "cell-based, human", "details": "H1155 cells expressing higher than normal levels of DCAF15"}, "[6]": {"system": "indisulam resistant HCT-116 clones", "assay": "Cell viability assay, indisulam resistant clones", "assay_type": "cell-based, human", "procedure": "The methods for generating a population of barcoded HCT-116 cells were described before (20). […] Clones that appeared after the selection was then expanded and barcode genotyped to identify six clones with unique barcodes. […] Source data for exome sequencing data is available under NCBI SRA accession SRP068238. Bortezomib resistant clones were isolated by selection with 5 nM bortezomib, and MLN4924 resistant clones with 40 nM MLN4924.\n(§2) 12-point dose responses were performed on 96-well assay plates with cell plating (1500-4000 cell per well) on day 1, compound addition on day 2, and survival measurement on day 5. Compounds were diluted in DMSO before adding to the cells. Final DMSO concentration was 0.5%. Cell survival assay was performed using CellTiter-Glo Luminescent Cell Viability Assay kit (Promega) that measures cellular ATP content. Luminescence was recorded by EnVison multimode plate reader (Perkin Elmer). IC50 was determined with GraphPad Prism using baseline correction (by normalizing to DMSO control), the asymmetric (five parameter) equation and least squares fit."}, "HCT-116 cells": {"system": "HCT-116 cells", "assay": "Cell viability assay (CellTiter-Glo)", "assay_type": "cell-based, human", "details": "Homo sapiens, read-out: concentration required to reduce the viability by 50% (IC50); parental HCT-116 cells", "procedure": "The identity for all human cell lines in this study was confirmed by short tandem repeat (STR) analysis. In addition, all human cell lines were confirmed to be mycoplasma free using a PCR based assay (Genatlantis). HCT-116 cells (ATCC) were grown in DMEM medium with 10% FBS and 2 mM L-glutamine. Lenti-X 293T cells (Clontech) were cultured in DMEM medium with 10% FBS and 2 mM L-glutamine. H1155 cells (a gift from Adi Gazdar and John Minna, UT Southwestern) were cultured in RPMI media with 5% FBS and 2 mM L-glutamine. SF9 cells (a gift from Hongtao Yu, UT Southwestern) were cultured in SF900 II serum free media (Life Technologies).\nas §2"}, "human cancer cell lines": {"system": "human cancer cell lines", "details": "cited from earlier work"}, "[7]": {"target": "T3, RBM39-3xFLAG G268V with CUL4-DCAF15 complex (Homo sapiens, UniProt Q14498+Q66K64, G268V)", "T3 construct": "lysate derived from parental cells, RBM39-3xFLAG cells, or RBM39 G268V-3xFLAG cells; endogenous in cells; host or cells: HCT-116 RBM39 G268V-3xFLAG cells (treated cells in A91; lysates in A95)", "assay": "In vitro formation of complex in lysates, G268V", "assay_type": "binding", "details": "in the presence of 10 μM of indisulam", "procedure": "First, we reconstituted formation of the RBM39-CUL4-DCAF15 complex in vitro (FIG. 4, panel A).\nAnti-Flag M2 antibody (Sigma-Aldrich) was coupled to Dynabeads M-270 epoxy beads (Life Technologies) at the ratio of 10 μg of antibody/mg beads. […] Frozen cells were then pulverized in the a cryomill (Retsch) with one 25 mm steel ball and five cycles of three min at 25 Hz with intermittent cooling in liquid nitrogen. […] The lysates were centrifuged at 8000 g for 5 min at 4° C. 12 mg of conjugated Anti-Flag magnetic beads were mixed with clarified lysates for 5 min at 4° C. on a rotating platform, followed by three washes with IP buffer. Bound proteins were eluted with 1 mg/ml 3xFLAG peptide, followed by SDS-PAGE on a 10% Bis Tris gel. After brief electrophoresis, bands containing all the proteins were cut with clean blades. For western blotting of co-immunoprecipitated proteins, anti-DDA1 (ProteinTech, 14995-1-AP, 1:1000), anti-DDB1 (Abcam, ab109027, 1;10000), anti-CUL4A (Cell Signaling, 2699, 1:1000), anti-CUL4B (ProteinTech, 12916-1-AP, 1:1000) were used."}},
  "data": [
    {"smiles": "NS(=O)(=O)c1ccc(S(=O)(=O)Nc2cccc3c(Cl)c[nH]c23)cc1", "note": "[Indisulam, indisulam]", "values": [
      {"measurement": "amount of indisulam in complex (LC-MS)", "setting": "DCAF15 and RBM39Δ150 [1]", "result": "lower levels of indisulam"},
      {"measurement": "amount of indisulam in complex (LC-MS)", "setting": "DCAF15 and RBM39Δ150 [2]; DCAF15 and M265L or E271Q variants of RBM39Δ150", "result": "no indisulam was detected"},
      {"measurement": "amount of indisulam (LC-MS)", "setting": "DCAF15 and RBM39Δ150 [2]; either DCAF15 or RBM39 alone", "result": "no indisulam was identified"},
      {"measurement": "amount of indisulam in complex (LC-MS)", "setting": "DCAF15 and RBM39Δ150 [3]", "result": "highest levels of indisulam"},
      {"measurement": "RBM39 degradation in response to indisulam", "setting": "[4]", "result": "failed to degrade RBM39"},
      {"measurement": "sensitivity vs mock treated cells", "setting": "[5]", "result": "more sensitive"},
      {"measurement": "IC50", "setting": "[6]; Homo sapiens, HCT-116", "result": 9.3, "unit": "µM"},
      {"measurement": "sensitivity of indisulam resistant clones", "setting": "[6]; five of six clones, concentrations as high as 50", "result": "insensitive"},
      {"measurement": "times less sensitive than the parental HCT-116 cells", "setting": "[6]; sixth indisulam resistant clone", "result": 17, "unit": "times"},
      {"measurement": "IC50", "setting": "HCT-116 cells", "result": 0.56, "unit": "µM"},
      {"measurement": "effect on cell cycle", "setting": "human cancer cell lines", "result": "cell cycle arrest in the G1 phase followed by cell death"},
      {"measurement": "co-purification of RBM39-3xFLAG G268V with CUL4-DCAF15 complex", "setting": "[7]", "result": "did not co-purify"}
    ]}
  ]
}
